Literature values, collected in publication PMC11790914, “Chemogenomics for steroid hormone receptors (NR3)” (Communications Chemistry, 2025).

Conditions: other targets with annotated bioactivities at ≤10 µM in previously published dataset; cited from earlier work

Row | Structure (SMILES) | Reason for exclusion: number of annotated off-targets
1 | C[C@]12CC[C@@H]3c4ccc(O)cc4CC[C@H]3[C@@H]1CC[C@@H]2O [17β-Estradiol] | > 5 off-targets
2 | CCC(=C(c1ccc(O)cc1)c1ccc(OCCN(C)C)cc1)c1ccccc1 [(E,Z)-Hydroxytamoxifen] | > 5 off-targets
3 | CC(O)(CS(=O)(=O)c1ccc(F)cc1)C(=O)Nc1ccc(C#N)c(C(F)(F)F)c1 (stereo not shown) [Bicalutamide] | > 5 off-targets
4 | O=c1oc2cc(O)ccc2c2oc3cc(O)ccc3c12 [Coumestrol] | > 5 off-targets
5 | O=c1c(-c2ccc(O)cc2)coc2cc(O)ccc12 [Daidzein] | > 5 off-targets
6 | C[C@]12CCC(=O)C[C@@H]1CC[C@@H]1[C@@H]2CC[C@]2(C)[C@@H](O)CC[C@@H]12 [Dihydrotestosterone] | > 5 off-targets
7 | C/C=C1/C(=O)C[C@H]2[C@@H]3CCC4=CC(=O)CC[C@]4(C)[C@H]3CC[C@]12C [E-Guggulsterone] | > 5 off-targets
8 | CCN(CC)CCOc1ccc(/C(=C(/Cl)c2ccccc2)c2ccccc2)cc1.Cl [Enclomiphene hydrochloride] | > 5 off-targets
9 | C[C@]12CC[C@@H]3c4ccc(OC(=O)c5ccccc5)cc4CC[C@H]3[C@@H]1CC[C@@H]2O [Estradiol benzoate] | > 5 off-targets
10 | C[C@]12CC[C@@H]3c4ccc(O)cc4CC[C@H]3[C@@H]1C[C@@H](O)[C@@H]2O [Estriol] | > 5 off-targets
11 | CC(C)C(=O)Nc1ccc([N+](=O)[O-])c(C(F)(F)F)c1 [Flutamide] | > 5 off-targets
12 | C[C@@H]1C[C@H]2[C@@H]3C[C@H](F)C4=CC(=O)C=C[C@]4(C)[C@@]3(F)[C@@H](O)C[C@]2(C)[C@@]1(OC(=O)c1ccco1)C(=O)SCF [Fluticasone furoate] | > 5 off-targets
13 | C[C@]12CC[C@H](O)CC1=CC[C@@H]1[C@@H]2CC[C@]2(C)C(n3cnc4ccccc43)=CC[C@@H]12 [Galeterone] | > 5 off-targets
14 | O=c1c(-c2ccc(O)cc2)coc2cc(O)cc(O)c12 [Genistein] | > 5 off-targets
15 | Oc1c(Cl)cc(Cl)c(Cl)c1Cc1c(O)c(Cl)cc(Cl)c1Cl [Hexachlorophene] | > 5 off-targets
16 | CC(=O)[C@@]1(O)CC[C@H]2[C@@H]3CCC4=CC(=O)CC[C@]4(C)[C@H]3CC[C@@]21C [Hydroxyprogesterone] | > 5 off-targets
17 | COc1ccc2c(c1)c(CC(=O)O)c(C)n2C(=O)c1ccc(Cl)cc1 [Indomethacin] | > 5 off-targets
18 | CC(=O)O[C@]1(C(C)=O)CC[C@H]2[C@@H]3C[C@H](C)C4=CC(=O)CC[C@]4(C)[C@H]3CC[C@@]21C [Medroxyprogesterone acetate] | > 5 off-targets
19 | COc1cc([C@@H]2c3cc4c(cc3[C@H](O)[C@H]3COC(=O)[C@H]23)OCO4)cc(OC)c1OC [Podophyllotoxin] | > 5 off-targets
20 | C[C@]12C=CC(=O)C=C1CC[C@@H]1[C@@H]2[C@@H](O)C[C@@]2(C)[C@H]1CC[C@]2(O)C(=O)CO [Prednisolone] | > 5 off-targets
21 | CC(=O)[C@H]1CC[C@H]2[C@@H]3CCC4=CC(=O)CC[C@]4(C)[C@H]3CC[C@]12C [Progesterone] | > 5 off-targets
22 | CC(=O)S[C@@H]1CC2=CC(=O)CC[C@]2(C)[C@H]2CC[C@@]3(C)[C@@H](CC[C@@]34CCC(=O)O4)[C@H]12 [Spironolactone] | > 5 off-targets
23 | CC/C(=C(\c1ccccc1)c1ccc(OCCN(C)C)cc1)c1ccccc1 [Tamoxifen] | > 5 off-targets
24 | C[C@]12CC[C@H]3[C@@H](CCC4=CC(=O)CC[C@@]43C)[C@@H]1CC[C@@H]2O [Testosterone] | > 5 off-targets
25 | C[C@]12C=CC(=O)C=C1CC[C@H]1[C@@H]3C[C@@H](O)[C@](O)(C(=O)CO)[C@@]3(C)C[C@H](O)[C@@]12F [Triamcinolone] | > 5 off-targets
